Laboratory results reported in patent US20260337245A1, “POLYPEPTIDE OR ANALOG THEREOF AND USE THEREOF” (Shenzhen Bay Laboratory, priority 2024, published 2026).
Starred links: 1 amine or outer side, 2 acyl side, 3 side chain; linkers in the order of their positions; H or OH if unused. Positions of bridges follow the written chain, without caps; N, C: chain ends. Non-standard residues stand in square brackets, D forms with d. Residues, ends and D or L forms follow the SMILES beside them. X1 = O=C(O)CCCCCCCCCCCCCCCCCCC(=O)N[C@@H](CCCCNC(=O)COCCOCCNC(=O)COCCOCCNC(=O)CCC(=O)N(CCNC(=O)C[*:1])CCNC(=O)C[*:2])C(=O)O; Hyp = O=C(O)[C@@H]1C[C@@H](O)CN1; αMeF = C[C@](N)(Cc1ccccc1)C(=O)O; Orn = NCCC[C@H](N)C(=O)O; Aib = CC(C)(N)C(=O)O

Tests used:
CTR = target: T1, CTR (Homo sapiens, UniProt P30988); assay: HTRF cAMP assay, CTR; assay type: cell-based; conditions: HEK293/pGM-CREB-L-Luc/CTR pool, read-out: IC50 of receptor CTR
T1 construct: expressed in transfected cells
T1 sequence (P30988 25-474): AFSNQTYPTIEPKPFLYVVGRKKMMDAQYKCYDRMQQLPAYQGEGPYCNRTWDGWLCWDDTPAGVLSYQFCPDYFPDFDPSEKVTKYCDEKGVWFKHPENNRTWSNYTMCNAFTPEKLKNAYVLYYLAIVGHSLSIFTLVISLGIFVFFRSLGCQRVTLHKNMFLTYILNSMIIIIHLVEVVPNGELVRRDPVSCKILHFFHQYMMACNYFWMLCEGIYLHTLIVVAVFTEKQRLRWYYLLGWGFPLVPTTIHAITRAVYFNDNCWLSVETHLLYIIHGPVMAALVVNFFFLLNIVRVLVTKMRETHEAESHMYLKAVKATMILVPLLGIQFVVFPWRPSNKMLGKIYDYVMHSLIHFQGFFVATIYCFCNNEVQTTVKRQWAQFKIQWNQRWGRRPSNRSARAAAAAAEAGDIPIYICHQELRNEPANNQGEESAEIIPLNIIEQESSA
Description: (§1) 2. The polypeptide derivatives prepared in Example 1 and Example 2 of the present disclosure can bind to the target AMYR and CTR receptors on the cell membrane, activate the receptors and release cAMP. Therefore, the activity of the analyte can be determined by using an HTRF (homogeneous time-resolved fluorescence) method and using a cAMP detection kit. The specific steps were as follows:
(§2) A stable transfected cell line of HEK293/pGM-CREB-L-Luc/AMY3R pool and HEK293/pGM-CREB-L-Luc/CTR pool was constructed. The polypeptide derivatives (i.e., AMY-001 to AMY-041) prepared in Examples 1 and 2 were subjected to 5-fold serial dilution from a maximum of 1000 nM to prepare a dilution series containing 8 to 11 concentration gradients. Cagrilintide and sCT were selected as positive controls for testing, and a dilution series was prepared according to the same method for testing. The test cell lines were selected and treated with cAMP-specific trypsin for digestion, and then suspended with 3 mL of serum-free DMEM medium by pipetting, and the cells were counted. 5 μL of IBMX (prepared with serum-free DMEM medium, 0.5 mM) and test cells (5 μL/7500 cells/well) were sequentially added to a 384-well plate, incubated under the conditions of 37° C., 5% CO2 for 30 minutes, then added with cAMP-d2 (5 μL, 1×) and Anti-cAMP-Cryptate (5 μL, 1×) and placed at room temperature for 1 hour. A HTRF value was determined by a chemiluminescence microplate reader, and the results were recorded. An activation curve was plotted using GraphPad Prism software to calculate an IC50 value of each polypeptide derivative. […] The IC50 values of some polypeptides were exemplarily shown in this example, see Table 3, FIG. 2 and FIG. 3 for details.

AMY3R = target: T2, AMY3R (Homo sapiens, UniProt P30988); assay: HTRF cAMP assay, AMY3R; assay type: cell-based; conditions: HEK293/pGM-CREB-L-Luc/AMY3R pool, read-out: IC50 of receptor AMY3R
T2 construct: expressed in transfected cells
T2 sequence (P30988 25-474): T1 sequence (P30988 25-474)
T2 sequence (O60896 24-148 partner): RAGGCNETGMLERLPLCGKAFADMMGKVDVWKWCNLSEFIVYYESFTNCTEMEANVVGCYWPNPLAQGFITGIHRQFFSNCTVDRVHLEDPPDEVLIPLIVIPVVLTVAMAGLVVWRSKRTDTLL
Description: as §1, §2

| SMILES | EC50 (CTR) | EC50 (AMY3R) |
| --- | --- | --- |
| CC(=O)N[C@@H](C)C(=O)N[C@@H](CO)C(=O)N[C@@H](Cc1c[nH]cn1)C(=O)N[C@@H](CC(C)C)C(=O)N[C@@H](CO)C(=O)N[C@H](C(=O)N[C@@H](C)C(=O)N[C@H](C(=O)N[C@@H](CC(C)C)C(=O)NCC(=O)N[C@H]1CCCCNC(=O)CN(C(=O)COCCOCCNC(=O)CC[C@H](NC(=O)CCCCCCCCCCCCCCCCCCC(=O)O)C(=O)O)CC(=O)NCCCC[C@@H](C(=O)N[C@@H](CC(C)C)C(=O)NC(C)(C)C(=O)N[C@@H](CC(=O)O)C(=O)N[C@@H](Cc2ccc(O)cc2)C(=O)N2CCC[C@H]2C(=O)N[C@@H](CCC(N)=O)C(=O)N[C@H](C(=O)N[C@@H](CC(=O)O)C(=O)N[C@H](C(=O)NCC(=O)N[C@@H](C)C(=O)NCC(=O)N[C@@H](CO)C(=O)N2C[C@H](O)C[C@H]2C(N)=O)C(C)C)[C@@H](C)O)NC(=O)[C@H](Cc2c[nH]cn2)NC(=O)[C@H](CC(C)C)NC(=O)[C@H](CCC(=O)O)NC(=O)[C@H](C)NC(=O)[C@H](CO)NC(=O)[C@H](CC(C)C)NC1=O)C(C)C)[C@@H](C)O [AMY-022, Ac-ASHLSTAVLGKLSAELHKL-Aib-DYPQTDVGAGS-Hyp-NH2] | 0.102 nM | 0.0679 nM |
| CC(=O)N[C@@H](C)C(=O)N[C@@H](CO)C(=O)N[C@@H](Cc1c[nH]cn1)C(=O)N[C@@H](CC(C)C)C(=O)N[C@@H](CO)C(=O)N[C@H](C(=O)N[C@@H](C)C(=O)N[C@H](C(=O)N[C@@H](CC(C)C)C(=O)NCC(=O)N[C@H]1CSCC(=O)NCCN(C(=O)CCC(=O)NCCOCCOCC(=O)NCCOCCOCC(=O)NCCCC[C@H](NC(=O)CCCCCCCCCCCCCCCCCCC(=O)O)C(=O)O)CCNC(=O)CSC[C@@H](C(=O)N[C@@H](CC(C)C)C(=O)NC(C)(C)C(=O)N[C@@H](CC(=O)O)C(=O)N[C@@H](Cc2ccc(O)cc2)C(=O)N2CCC[C@H]2C(=O)N[C@@H](CCCNC(=N)N)C(=O)N[C@H](C(=O)N[C@@H](CC(=O)O)C(=O)N[C@H](C(=O)NCC(=O)N[C@@H](C)C(=O)NCC(=O)N[C@@H](CO)C(=O)N2CCC[C@H]2C(N)=O)C(C)C)[C@@H](C)O)NC(=O)[C@H](Cc2c[nH]cn2)NC(=O)[C@H](CC(C)C)NC(=O)[C@H](CCC(=O)O)NC(=O)[C@H](C)NC(=O)[C@H](CO)NC(=O)[C@H](CC(C)C)NC1=O)C(C)C)[C@@H](C)O [AMY-006, Ac-ASHLSTAVLGCLSAELHCL-Aib-DYPRTDVGAGSP-NH2] (Ac-ASHLSTAVLGCLSAELHCL[Aib]DYPRTDVGAGSP-NH2; linker 11-18 via X1) | 0.0107 nM | 0.0254 nM |
| CC(=O)N[C@@H](C)C(=O)N[C@@H](CO)C(=O)N[C@@H](Cc1c[nH]cn1)C(=O)N[C@@H](CC(C)C)C(=O)N[C@@H](CO)C(=O)N[C@H](C(=O)N[C@@H](C)C(=O)N[C@H]1CSCC(=O)NCCN(C(=O)CCC(=O)NCCOCCOCC(=O)NCCOCCOCC(=O)NCCCC[C@H](NC(=O)CCCCCCCCCCCCCCCCCCC(=O)O)C(=O)O)CCNC(=O)CSC[C@@H](C(=O)N[C@@H](CC(C)C)C(=O)N[C@@H](Cc2c[nH]cn2)C(=O)N[C@@H](CCCN)C(=O)N[C@@H](CC(C)C)C(=O)NC(C)(C)C(=O)N[C@@H](CC(=O)O)C(=O)N[C@@](C)(Cc2ccccc2)C(=O)N2CCC[C@H]2C(=O)N[C@@H](CCCNC(=N)N)C(=O)N[C@H](C(=O)N[C@@H](CC(=O)O)C(=O)N[C@H](C(=O)NCC(=O)N[C@@H](C)C(=O)NCC(=O)N[C@@H](CO)C(=O)N2C[C@H](O)C[C@H]2C(N)=O)C(C)C)[C@@H](C)O)NC(=O)[C@H](C)NC(=O)[C@H](CO)NC(=O)[C@H](CC(C)C)NC(=O)[C@H](CCCNC(=N)N)NC(=O)CNC(=O)[C@H](CC(C)C)NC1=O)[C@@H](C)O [AMY-009, Ac-ASHLSTACLGRLSACLH-Orn-L-Aib-D-(αMeF)-PRTDVGAGS-Hyp-NH2] (Ac-ASHLSTACLGRLSACLH[Orn]L[Aib]D[αMeF]PRTDVGAGS[Hyp]-NH2; linker 8-15 via X1) | 0.0894 nM | 0.0414 nM |
